Source: ChEMBL document CHEMBL3997763 (Medchemcomm, 2016)
Calls of active or inactive are those of the source. No cut-off for these calls is given here.

How the values were obtained:
Rattus norvegicus [1] = assay: Hypolipidemic activity in HFD-induced Charles Foster rat assessed as increase in serum LCAT activity at 10 mg/kg administered as single dose via oral gavage for 30 days simultaneously with high fat diet by photometric method; format: functional, organism-based
Rattus norvegicus [2] = assay: Antihyperlipidemic activity in triton WR-1339 induced Charles Foster rat hyperlipidemia model assessed as inhibition of total cholesterol level in serum at 10 mg/kg, po administered simultaneously with triton WR-1339 after 18 hrs by enzymatic method relative to control; format: functional
Rattus norvegicus [3] = assay: Hypolipidemic activity in HFD-induced Charles Foster rat assessed as reduction in serum VLDL-TG at 10 mg/kg administered as single dose via oral gavage for 30 days simultaneously with high fat diet; format: functional, organism-based
[4] = biological target: T1, 3-hydroxy-3-methylglutaryl-coenzyme A reductase (Homo sapiens) (UniProt P04035); assay: Inhibition of human HMG-CoA reductase catalytic domain at 5 uM using HMG-CoA as substrate in presence of NADPH by colorimetric method relative to control
T1 sequence (whole entry): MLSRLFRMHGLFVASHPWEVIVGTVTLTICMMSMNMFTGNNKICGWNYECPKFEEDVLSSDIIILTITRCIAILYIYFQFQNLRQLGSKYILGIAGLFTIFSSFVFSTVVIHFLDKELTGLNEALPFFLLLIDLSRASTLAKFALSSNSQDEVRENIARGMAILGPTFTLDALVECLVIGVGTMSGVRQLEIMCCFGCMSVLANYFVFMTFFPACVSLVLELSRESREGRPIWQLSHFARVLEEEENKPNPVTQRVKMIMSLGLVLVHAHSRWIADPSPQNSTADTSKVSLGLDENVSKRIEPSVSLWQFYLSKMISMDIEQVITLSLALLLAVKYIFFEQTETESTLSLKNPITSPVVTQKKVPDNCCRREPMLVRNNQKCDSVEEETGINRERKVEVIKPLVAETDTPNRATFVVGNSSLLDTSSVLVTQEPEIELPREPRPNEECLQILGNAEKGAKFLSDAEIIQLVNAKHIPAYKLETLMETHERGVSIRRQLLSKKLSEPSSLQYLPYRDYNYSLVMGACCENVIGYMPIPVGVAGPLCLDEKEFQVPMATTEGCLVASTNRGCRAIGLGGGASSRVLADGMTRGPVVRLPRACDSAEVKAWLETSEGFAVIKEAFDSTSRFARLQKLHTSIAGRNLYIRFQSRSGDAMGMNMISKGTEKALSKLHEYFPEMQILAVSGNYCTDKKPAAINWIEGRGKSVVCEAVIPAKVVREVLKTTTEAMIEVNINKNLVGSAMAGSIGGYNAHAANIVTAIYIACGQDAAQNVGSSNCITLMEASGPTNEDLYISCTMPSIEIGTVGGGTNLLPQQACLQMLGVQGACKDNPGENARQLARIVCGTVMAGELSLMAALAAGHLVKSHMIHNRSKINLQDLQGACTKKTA

Rattus norvegicus [5] = assay: Hypolipidemic activity in HFD-induced Charles Foster rat assessed as reduction in serum LDL-TG at 10 mg/kg administered as single dose via oral gavage for 30 days simultaneously with high fat diet; format: functional, organism-based
[6] = biological target: T1, 3-hydroxy-3-methylglutaryl-coenzyme A reductase (Homo sapiens); assay: Inhibition of human HMG-CoA reductase catalytic domain at 20 uM using HMG-CoA as substrate in presence of NADPH by colorimetric method relative to control
Rattus norvegicus [7] = assay: Hypolipidemic activity in HFD-induced Charles Foster rat chronic hyperlipidemia model assessed as reduction in serum ALT level at 10 mg/kg administered via oral gavage for 30 days simultaneously with high fat diet by colorimetric method relative to HFD treated vehicle; format: functional; settings: 720 h
Rattus norvegicus [8] = assay: Hypolipidemic activity in HFD-induced Charles Foster rat chronic hyperlipidemia model assessed as reduction in serum total cholesterol level at 10 mg/kg administered via oral gavage for 30 days simultaneously with high fat diet by enzymatic method relative to HFD treated vehicle; format: functional; settings: 720 h
[9] = biological target: T1, 3-hydroxy-3-methylglutaryl-coenzyme A reductase (Homo sapiens); assay: Inhibition of human HMG-CoA reductase catalytic domain at 100 uM using HMG-CoA as substrate in presence of NADPH by colorimetric method relative to control
Rattus norvegicus [10] = assay: Antihyperlipidemic activity in triton WR-1339 induced Charles Foster rat hyperlipidemia model assessed as inhibition of phospholipid level in serum at 10 mg/kg, po administered simultaneously with triton WR-1339 after 18 hrs by enzymatic method relative to control; format: functional
[11] = biological target: T1, 3-hydroxy-3-methylglutaryl-coenzyme A reductase (Homo sapiens); assay: Inhibition of human HMG-CoA reductase catalytic domain at 10 uM using HMG-CoA as substrate in presence of NADPH by colorimetric method relative to control
Rattus norvegicus [12] = assay: Hypolipidemic activity in HFD-induced Charles Foster rat assessed as reduction in serum VLDL-TC at 10 mg/kg administered as single dose via oral gavage for 30 days simultaneously with high fat diet; format: functional, organism-based
Rattus norvegicus [13] = assay: Hypolipidemic activity in HFD-induced Charles Foster rat chronic hyperlipidemia model assessed as reduction in liver triglyceride level at 10 mg/kg administered via oral gavage for 30 days simultaneously with high fat diet by enzymatic method relative to HFD treated vehicle; format: functional; settings: 720 h
Rattus norvegicus [14] = assay: Hypolipidemic activity in HFD-induced Charles Foster rat chronic hyperlipidemia model assessed as reduction in serum AST level at 10 mg/kg administered via oral gavage for 30 days simultaneously with high fat diet by colorimetric method relative to HFD treated vehicle; format: functional; settings: 720 h
[15] = biological target: T1, 3-hydroxy-3-methylglutaryl-coenzyme A reductase (Homo sapiens); assay: Inhibition of human HMG-CoA reductase catalytic domain at 50 uM using HMG-CoA as substrate in presence of NADPH by colorimetric method relative to control
[16] = biological target: T1, 3-hydroxy-3-methylglutaryl-coenzyme A reductase (Homo sapiens); assay: Inhibition of human HMG-CoA reductase catalytic domain at 1 uM using HMG-CoA as substrate in presence of NADPH by colorimetric method relative to control
Rattus norvegicus [17] = assay: Hypolipidemic activity in HFD-induced Charles Foster rat assessed as increase in serum HDL-TC at 10 mg/kg administered as single dose via oral gavage for 30 days simultaneously with high fat diet; format: functional, organism-based
Rattus norvegicus [18] = assay: Hypolipidemic activity in HFD-induced Charles Foster rat assessed as increase in lipolytic activity of LPL in liver at 10 mg/kg administered as single dose via oral gavage for 30 days simultaneously with high fat diet; format: functional, organism-based
Rattus norvegicus [19] = assay: Hypolipidemic activity in HFD-induced Charles Foster rat chronic hyperlipidemia model assessed as reduction in serum triglyceride level at 10 mg/kg administered via oral gavage for 30 days simultaneously with high fat diet by enzymatic method relative to HFD treated vehicle; format: functional; settings: 720 h
Rattus norvegicus [20] = assay: Hypolipidemic activity in HFD-induced Charles Foster rat assessed as increase in human I125-LDL binding to rat liver plasma membrane at 10 mg/kg administered as single dose via oral gavage for 30 days simultaneously with high fat diet by minigamma counting; format: functional, organism-based
Rattus norvegicus [21] = assay: Hypolipidemic activity in HFD-induced Charles Foster rat chronic hyperlipidemia model assessed as reduction in liver total cholesterol level at 10 mg/kg administered via oral gavage for 30 days simultaneously with high fat diet by enzymatic method relative to HFD treated vehicle; format: functional; settings: 720 h
Rattus norvegicus [22] = assay: Antihyperlipidemic activity in triton WR-1339 induced Charles Foster rat hyperlipidemia model assessed as inhibition of triglyceride level in serum at 10 mg/kg, po administered simultaneously with triton WR-1339 after 18 hrs by enzymatic method relative to control; format: functional
Rattus norvegicus [23] = assay: Hypolipidemic activity in HFD-induced Charles Foster rat assessed as inhibition of hepatic HMG-CoA reductase activity by measuring […] at 10 mg/kg administered as single dose via oral gavage for 30 days simultaneously with high fat diet by colorimetric method; format: functional, organism-based
Rattus norvegicus [24] = assay: Hypolipidemic activity in HFD-induced Charles Foster rat assessed as reduction in serum LDL-TC at 10 mg/kg administered as single dose via oral gavage for 30 days simultaneously with high fat diet; format: functional, organism-based
Rattus norvegicus [25] = assay: Hypolipidemic activity in HFD-induced Charles Foster rat assessed as increase in serum HDL-TG at 10 mg/kg administered as single dose via oral gavage for 30 days simultaneously with high fat diet; format: functional, organism-based

With `CC(C)c1c(C(=O)Nc2ccccc2)c(-c2ccccc2)c(-c2ccc(F)cc2)n1CC[C@@H](O)C[C@@H](O)CC(=O)O` [ATORVASTATIN] the Activity (Rattus norvegicus [1]) was “Active”, the inhibition in vivo at 10 mg/kg (Rattus norvegicus [2]) was 36% and the Activity (Rattus norvegicus [3]) was “Active”. For the same molecule, the inhibition [4] was 35%, the Activity (Rattus norvegicus [5]) was “Active” and the inhibition [6] was 69%. The inhibition in vivo at 10 mg/kg (Rattus norvegicus [7]) was 25%, the inhibition in vivo at 10 mg/kg (Rattus norvegicus [8]) was 25% and the inhibition [9] was 83%. The inhibition in vivo at 10 mg/kg (Rattus norvegicus [10]) was 35%, the inhibition [11] was 60 to 63% and the Activity (Rattus norvegicus [12]) was “Active”. It also gave an inhibition in vivo at 10 mg/kg (Rattus norvegicus [13]) of 30%, an inhibition in vivo at 10 mg/kg (Rattus norvegicus [14]) of 29% and an inhibition [15] of 76%. For the same molecule, the inhibition [16] was 20%, the Activity (Rattus norvegicus [17]) was “Active” and the Activity (Rattus norvegicus [18]) was “Active”. The inhibition in vivo at 10 mg/kg (Rattus norvegicus [19]) was 26%, the Activity (Rattus norvegicus [20]) was “Active” and the inhibition in vivo at 10 mg/kg (Rattus norvegicus [21]) was 28%. For the same molecule, the inhibition in vivo at 10 mg/kg (Rattus norvegicus [22]) was 35%, the inhibition (Rattus norvegicus [23]) was “Active” and the Activity (Rattus norvegicus [24]) was “Active”. The Activity (Rattus norvegicus [25]) was “Active”.
